Results on two substances are retold here after publication PMC8022858, “Discovery of bone morphogenetic protein 7-derived peptide sequences that attenuate the human osteoarthritic chondrocyte phenotype” (Molecular Therapy. Methods & Clinical Development, 2021).

This test concerns OA-HACs with NKX3-2 knockdown. The experiment in a line: NKX3-2 siRNA knockdown and peptide treatment, hypertrophy gene expression. The class given is cell-based, human. The following applies: OA-HAC pool (n = 4 donors), then 100 nM peptide 24 h (Figure 5A); for chondrocyte hypertrophy-inhibiting bioactivity in control (scrambled siRNA) condition: 100 nM siRNA 24 h; for rescue of hypertrophy-inducing consequences of NKX3-2 knockdown: NKX3-2 siRNA 100 nM 24 h. The text has this: A chondrocyte phenotypic consequence of exposure to peptides p[63−82] or p[113−132] is an overall attenuation of hypertrophy. Previously, we[17]^,[27] and others[29]^,[30] recognized NKX3-2 (BAPX1) as an important negative regulator of chondrocyte hypertrophy, and the hypertrophy-inhibiting action of BMP7 on OA-HACs is, at least in part, mediated via NKX3-2.[27] Taking into consideration that the ability to induce NKX3-2 expression was one of the screening criteria for the identification of the here-described, BMP7-derived peptides (Figures 2 and S2), we next investigated whether NKX3-2 is involved in the bioactivity of peptides p[63−82] and p[113−132]. By means of small interfering (si)RNA transfection, NKX3-2 expression was reduced in a pool of OA-HACs. […] Treatment of control conditions (scrambled siRNA) with peptide p[63−82] or p[113−132]confirmed the peptides’ chondrocyte hypertrophy-inhibiting bioactivity (Figure 5A).
Figure 5 Molecular characterization of peptides p[63−82] and p[113−132] (A) A pool of OA-HACs (n = 4 donors) was transfected with a scrambled siRNA or with an NKX3-2 siRNA (100 nM siRNA) and cultured for 24 h. Cultures were then exposed to peptide p[63−82] or p[113−132] (100 nM peptide). Samples were harvested 24 h later and analyzed for the expression of the indicated mRNAs (normalized to 28S rRNA). (B) SW1353 chondrocytic cells were transfected with BRE (SMAD1/5/8 reporter) or CAGA12 (SMAD2/3 reporter) firefly luciferase-reporter plasmids. A CMV-Gaussia plasmid was cotransfected as a transfection control. Cells were then cultured for 24 h and subsequently exposed to control, p[63−82], or p[113−132] for 8 h. Firefly and Gaussia bioluminescence were measured in cells and medium (respectively), and relative light units (RLUs) of firefly luciferase were normalized for the Gaussia luciferase signal. The normalized firefly luciferase signal of the control condition was set at 1, and peptide conditions were calculated relative to the control condition (FL/GL). Error bars represent mean ± SEM; statistical significance for peptide conditions versus siScrambled or siNKX3-2 (A) or control condition (B) as determined by unpaired two-tailed Student’s t test is represented as ∗p < 0.05, ∗∗p < 0.01, and ∗∗∗p < 0.001. […] An alanine-scanning bioactivity score (sum of the fold change gene expression of COL10A1, ALPL, MMP13, and COL2A1 plus NKX3-2 of the alanine-substituted peptides versus the wild-type p[63−82] peptide) was calculated for each alanine substitution in the amino acid sequence of peptide p[63−82] and is represented by the height of each letter on the y axis (data in Figure S4). […]

On to H-SVLYFDDSSNVILKKYRNMV-OH [p[113−132]], for which the “chondrocyte hypertrophy-inhibiting bioactivity in control (scrambled siRNA) condition” value is on record as “confirmed” and the “rescue of hypertrophy-inducing consequences of NKX3-2 knockdown” value is “did not show rescue”.
On the same counts, the results for H-AAYYSEGESAFPLNSYMNAT-OH [p[63−82]] are “confirmed” and “did not show rescue”.
